{
  "source": "the supplement of paper PMC10307832",
  "data": [
    {"compound": "O=C(O)C(Cc1ccccc1[N+](=O)[O-])=NNc1nc(-c2ccc(Cl)c(Cl)c2)cs1 (mixture of isomers) [4EGI-1] + O=C(c1cc(Cc2n[nH]c(=O)c3ccccc23)ccc1F)N1CCN(C(=O)C2CC2)CC1 [Olaparib] (partner 8 µM)", "assay": "relative viability (nuclei count vs DMSO), 5 days (fraction); higher = more cells survive", "settings": "first compound 0.5 µM", "procedure,_shortened": "(§1)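 Cells from lung cancer lines were seeded into 1536-well plates and, one day later, dosed by pin tool. Treatments were either a single drug or a fixed dose of an anchor drug with five library-drug doses (not always all listed) in √10 steps. After 5 days, nuclei were stained in a one-step fixation (final 0.05% Triton X-100, 1% formaldehyde, 1 ug/ml Hoechst) and counted on 4× images, and relative viability is the treated-to-vehicle nuclei ratio, as the median of duplicate plates.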", "values": [
      {"cell line": "HCC-44", "relative viability": 0.959},
      {"cell line": "HCC-78", "relative viability": 1.05},
      {"cell line": "HCC-366", "relative viability": 0.342},
      {"cell line": "HCC-827", "relative viability": 0.572},
      {"cell line": "HOP-62", "relative viability": 0.493},
      {"cell line": "IA-LM", "relative viability": 0.767},
      {"cell line": "LC-2-ad", "relative viability": 0.631},
      {"cell line": "LCLC-97TM1", "relative viability": 0.355},
      {"cell line": "LCLC-103H", "relative viability": 0.72},
      {"cell line": "LK-2", "relative viability": 0.86},
      {"cell line": "LOU-NH91", "relative viability": 0.95},
      {"cell line": "LU99A", "relative viability": 0.243},
      {"cell line": "LXF-289", "relative viability": 1.09},
      {"cell line": "NCI-H23", "relative viability": 0.335},
      {"cell line": "NCI-H596", "relative viability": 0.726},
      {"cell line": "NCI-H1299", "relative viability": 1.01},
      {"cell line": "NCI-H1703", "relative viability": 0.601}
    ]},
    {"compound": "O=C(O)C(Cc1ccccc1[N+](=O)[O-])=NNc1nc(-c2ccc(Cl)c(Cl)c2)cs1 (mixture of isomers) [4EGI-1] + O=C(c1cc(Cc2n[nH]c(=O)c3ccccc23)ccc1F)N1CCN(C(=O)C2CC2)CC1 [Olaparib] (partner 8 µM)", "assay": "relative viability (nuclei count vs DMSO), 5 days (fraction); higher = more cells survive", "settings": "first compound 1.581 µM", "procedure,_shortened": "as §1", "values": [
      {"cell line": "201T", "relative viability": 0.753},
      {"cell line": "BEN", "relative viability": 1.09},
      {"cell line": "CAL-12T", "relative viability": 0.484},
      {"cell line": "COR-L23", "relative viability": 0.217},
      {"cell line": "COR-L 105", "relative viability": 0.635},
      {"cell line": "Calu-6", "relative viability": 0.5},
      {"cell line": "ChaGo-K-1", "relative viability": 0.406},
      {"cell line": "EBC-1", "relative viability": 0.755},
      {"cell line": "EPLC-272H", "relative viability": 0.42},
      {"cell line": "H3255", "relative viability": 0.501},
      {"cell line": "HARA", "relative viability": 0.68},
      {"cell line": "HCC-15", "relative viability": 0.691},
      {"cell line": "HCC-44", "relative viability": 0.829},
      {"cell line": "HCC-366", "relative viability": 0.203},
      {"cell line": "HCC-827", "relative viability": 0.457},
      {"cell line": "IA-LM", "relative viability": 0.771},
      {"cell line": "LC-2-ad", "relative viability": 0.617},
      {"cell line": "LCLC-103H", "relative viability": 0.658},
      {"cell line": "LU99A", "relative viability": 0.212},
      {"cell line": "LXF-289", "relative viability": 0.975},
      {"cell line": "NCI-H596", "relative viability": 0.664},
      {"cell line": "NCI-H1299", "relative viability": 0.95},
      {"cell line": "NCI-H1703", "relative viability": 0.46}
    ]},
    {"compound": "O=C(O)C(Cc1ccccc1[N+](=O)[O-])=NNc1nc(-c2ccc(Cl)c(Cl)c2)cs1 (mixture of isomers) [4EGI-1] + O=C(c1cc(Cc2n[nH]c(=O)c3ccccc23)ccc1F)N1CCN(C(=O)C2CC2)CC1 [Olaparib] (partner 8 µM)", "assay": "relative viability (nuclei count vs DMSO), 5 days (fraction); higher = more cells survive", "settings": "first compound 5 µM", "procedure,_shortened": "as §1", "values": [
      {"cell line": "201T", "relative viability": 0.869},
      {"cell line": "A549", "relative viability": 0.306},
      {"cell line": "A-427", "relative viability": 0.766},
      {"cell line": "ABC-1", "relative viability": 1.19},
      {"cell line": "BEN", "relative viability": 1.2},
      {"cell line": "CAL-12T", "relative viability": 0.754},
      {"cell line": "COR-L23", "relative viability": 0.344},
      {"cell line": "COR-L 105", "relative viability": 0.644},
      {"cell line": "Calu-6", "relative viability": 0.627},
      {"cell line": "ChaGo-K-1", "relative viability": 0.407},
      {"cell line": "EBC-1", "relative viability": 0.765},
      {"cell line": "EKVX", "relative viability": 0.862},
      {"cell line": "EMC-BAC-2", "relative viability": 0.5},
      {"cell line": "EPLC-272H", "relative viability": 0.952},
      {"cell line": "H3255", "relative viability": 0.541},
      {"cell line": "HARA", "relative viability": 1},
      {"cell line": "HCC-15", "relative viability": 0.634},
      {"cell line": "HCC-44", "relative viability": 0.953},
      {"cell line": "HCC-78", "relative viability": 0.881},
      {"cell line": "HCC-366", "relative viability": 0.395},
      {"cell line": "HCC-827", "relative viability": 0.703},
      {"cell line": "HOP-62", "relative viability": 0.445},
      {"cell line": "IA-LM", "relative viability": 0.644},
      {"cell line": "LC-2-ad", "relative viability": 0.645},
      {"cell line": "LCLC-97TM1", "relative viability": 0.278},
      {"cell line": "LCLC-103H", "relative viability": 0.728},
      {"cell line": "LK-2", "relative viability": 0.884},
      {"cell line": "LOU-NH91", "relative viability": 0.911},
      {"cell line": "LU99A", "relative viability": 0.242},
      {"cell line": "LXF-289", "relative viability": 1.02},
      {"cell line": "NCI-H23", "relative viability": 0.278},
      {"cell line": "NCI-H596", "relative viability": 0.786},
      {"cell line": "NCI-H1299", "relative viability": 0.942},
      {"cell line": "NCI-H1703", "relative viability": 0.409}
    ]},
    {"compound": "O=C(O)C(Cc1ccccc1[N+](=O)[O-])=NNc1nc(-c2ccc(Cl)c(Cl)c2)cs1 (mixture of isomers) [4EGI-1] + O=C(c1cc(Cc2n[nH]c(=O)c3ccccc23)ccc1F)N1CCN(C(=O)C2CC2)CC1 [Olaparib] (partner 8 µM)", "assay": "relative viability (nuclei count vs DMSO), 5 days (fraction); higher = more cells survive", "settings": "first compound 15.81 µM", "procedure,_shortened": "as §1", "values": [
      {"cell line": "201T", "relative viability": 0.777},
      {"cell line": "A549", "relative viability": 0.355},
      {"cell line": "A-427", "relative viability": 0.643},
      {"cell line": "ABC-1", "relative viability": 1.16},
      {"cell line": "BEN", "relative viability": 0.891},
      {"cell line": "CAL-12T", "relative viability": 0.751},
      {"cell line": "COR-L23", "relative viability": 0.271},
      {"cell line": "COR-L 105", "relative viability": 0.559},
      {"cell line": "Calu-6", "relative viability": 0.464},
      {"cell line": "ChaGo-K-1", "relative viability": 0.34},
      {"cell line": "EBC-1", "relative viability": 0.506},
      {"cell line": "EKVX", "relative viability": 0.692},
      {"cell line": "EMC-BAC-2", "relative viability": 0.37},
      {"cell line": "EPLC-272H", "relative viability": 0.436},
      {"cell line": "H3255", "relative viability": 0.5},
      {"cell line": "HARA", "relative viability": 0.515},
      {"cell line": "HCC-15", "relative viability": 0.676},
      {"cell line": "HCC-44", "relative viability": 0.934},
      {"cell line": "HCC-78", "relative viability": 0.816},
      {"cell line": "HCC-366", "relative viability": 0.257},
      {"cell line": "HOP-62", "relative viability": 0.208},
      {"cell line": "IA-LM", "relative viability": 0.154},
      {"cell line": "LC-2-ad", "relative viability": 0.523},
      {"cell line": "LCLC-97TM1", "relative viability": 0.328},
      {"cell line": "LCLC-103H", "relative viability": 0.699},
      {"cell line": "LK-2", "relative viability": 0.654},
      {"cell line": "LOU-NH91", "relative viability": 0.738},
      {"cell line": "LU99A", "relative viability": 0.193},
      {"cell line": "LXF-289", "relative viability": 1.05},
      {"cell line": "NCI-H23", "relative viability": 0.245},
      {"cell line": "NCI-H596", "relative viability": 0.568},
      {"cell line": "NCI-H1299", "relative viability": 0.863},
      {"cell line": "NCI-H1703", "relative viability": 0.52}
    ]},
    {"compound": "O=C(O)C(Cc1ccccc1[N+](=O)[O-])=NNc1nc(-c2ccc(Cl)c(Cl)c2)cs1 (mixture of isomers) [4EGI-1] + O=C(c1cc(Cc2n[nH]c(=O)c3ccccc23)ccc1F)N1CCN(C(=O)C2CC2)CC1 [Olaparib] (partner 8 µM)", "assay": "relative viability (nuclei count vs DMSO), 5 days (fraction); higher = more cells survive", "settings": "first compound 50 µM", "procedure,_shortened": "as §1", "values": [
      {"cell line": "201T", "relative viability": 0.675},
      {"cell line": "A549", "relative viability": 0.301},
      {"cell line": "A-427", "relative viability": 0.276},
      {"cell line": "ABC-1", "relative viability": 0.269},
      {"cell line": "BEN", "relative viability": 0.595},
      {"cell line": "CAL-12T", "relative viability": 0.624},
      {"cell line": "COR-L23", "relative viability": 0.175},
      {"cell line": "COR-L 105", "relative viability": 0.537},
      {"cell line": "Calu-6", "relative viability": 0.332},
      {"cell line": "ChaGo-K-1", "relative viability": 0.217},
      {"cell line": "EBC-1", "relative viability": 0.237},
      {"cell line": "EKVX", "relative viability": 0.592},
      {"cell line": "EMC-BAC-2", "relative viability": 0.2},
      {"cell line": "EPLC-272H", "relative viability": 0.135},
      {"cell line": "H3255", "relative viability": 0.405},
      {"cell line": "HARA", "relative viability": 0.18},
      {"cell line": "HCC-15", "relative viability": 0.517},
      {"cell line": "HCC-44", "relative viability": 0.752},
      {"cell line": "HCC-78", "relative viability": 1.13},
      {"cell line": "HCC-366", "relative viability": 0.0601},
      {"cell line": "HCC-827", "relative viability": 0.406},
      {"cell line": "HOP-62", "relative viability": 0.267},
      {"cell line": "IA-LM", "relative viability": 0.0834},
      {"cell line": "LC-2-ad", "relative viability": 0.309},
      {"cell line": "LCLC-97TM1", "relative viability": 0.0574},
      {"cell line": "LCLC-103H", "relative viability": 0.415},
      {"cell line": "LK-2", "relative viability": 0.404},
      {"cell line": "LOU-NH91", "relative viability": 0.564},
      {"cell line": "LU99A", "relative viability": 0.141},
      {"cell line": "LXF-289", "relative viability": 0.513},
      {"cell line": "NCI-H23", "relative viability": 0.161},
      {"cell line": "NCI-H596", "relative viability": 0.464},
      {"cell line": "NCI-H1299", "relative viability": 0.317},
      {"cell line": "NCI-H1703", "relative viability": 0.331}
    ]}
  ]
}
